Source: patent US9994587B2, “HIV protease inhibitors” (priority 2014, dated 2018)

What follows are molecules tested against T1, wildtype HIV-1 protease (Human immunodeficiency virus type 1 group M subtype B, UniProt P04585) (assay: Assay for inhibition of microbial expressed HIV protease (Pepcleav)). Conditions: wild type HIV-1 protease 20 pM, peptide substrate 400 micromolar, pH 5.5; mean of at least two independent experiments.
T1 construct: preincubated with the HIV-1 protease (wild type) enzyme in assay buffer; made in house; host or cells: Escherichia coli
Format: biochemical
Experimental: Assay for Inhibition of Microbial Expressed HIV Protease (“Pepcleav”)
Studies of the inhibition of the wildtype HIV-1 protease (which was expressed in Escherichia coli) were carried out with a peptide substrate [Val-Ser-Gln-Asn-(βnaphtyl)Ala-Pro-Ile-Val (SEQ ID NO 1)]. The inhibitor was first preincubated with the HIV-1 protease (wild type) enzyme in assay buffer (50 mM sodium acetate, pH 5.5, 100 mM NaCl, and 0.1% BSA) for 30 minutes at room temperature. Substrate was added to 400 micromolar in a total volume of 20 microliters containing 20 picomolar HIV-1 protease (final) and the reaction is incubated for 1 hour at 30° C. The reaction was quenched with the addition of formic acid and indinavir to 0.012% and 150 nM final concentrations, respectively. Product formation was determined after separation of product and substrate on a Zorbax Eclipse XDB-C18 column connected to an API 4000 mass spectrometer (Applied Biosystems) with multiple reaction monitoring (transitions were 644.5/428.9 and 615.4/422.2 (M1/M3) for product and indinavir respectively). The extent of inhibition of the reaction was determined from the peak area of the products.

Compound | IC50 [nM]
COC(=O)N[C@H](C(=O)Nc1ccccc1CC[C@@H]1CNC[C@@H](c2nc3cc(C)c(C)cc3[nH]2)O1)C(c1ccccc1)c1ccccc1 [Example 112, N-(2-{2-[(2R,6S)-6-(5,6-dimethyl-1H-benzimidazol-2-yl)morpholin-2-yl]ethyl}phenyl)-Nα-(methoxycarbonyl)-β-phenyl-L-phenylalaninamide] | 850
COC(=O)N[C@H](C(=O)Nc1ccccc1CC[C@@H]1CNC[C@@H](C(F)(F)Cc2ccc(Br)cc2)O1)C(c1ccccc1)c1ccccc1 [Example 65, N-[2-(2-{(2R,6S)-6-[2-(4-bromophenyl)-1,1-difluoroethyl]morpholin-2-yl}ethyl)phenyl]-Nα-(methoxycarbonyl)-β-phenyl-L-phenylalaninamide] | 50
COC(=O)N[C@H](C(=O)Nc1ccccc1CCC1CNC[C@@H](COc2ccc(Cl)cc2)O1)C(c1ccccc1)c1ccccc1 (stereo partly drawn) [Example 5, methyl N-[(1S)-1-benzhydryl-2-[[2-[2-[(6S)-6-[(4-chlorophenoxy)methyl]morpholin-2-yl]ethyl]phenyl]amino]-2-oxo-ethyl]carbamate] | 58
COC(=O)N[C@H](C(=O)Nc1ccccc1C[C@H]1CNC[C@@H](COc2ccc(C#N)cc2)O1)C(c1ccccc1)c1ccccc1 [Example 117, N-[2-({(2S,6S)-6-[(4-cyanophenoxy)methyl]morpholin-2-yl}methyl)phenyl]-Nα-(methoxycarbonyl)-β-phenyl-L-phenylalaninamide] | 180
N[C@H](C(=O)Nc1cncc(F)c1CC[C@@H]1CNC[C@@H](CO)O1)C(c1ccc(F)cc1)c1ccc(F)cc1 [Example 120, 4-fluoro-N-(5-fluoro-4-{2-[(2R,6S)-6-(hydroxymethyl)morpholin-2-yl]ethyl}pyridin-3-yl)-β-(4-fluorophenyl)-L-phenylalaninamide] | 380
N[C@H](C(=O)Nc1cncc(F)c1CC[C@@H]1CNC[C@@H](COC(=O)NCC(F)(F)F)O1)C(c1ccc(F)cc1)c1ccc(F)cc1 [Example 123, 4-fluoro-β-(4-fluorophenyl)-N-(5-fluoro-4-{2-[(2R,6S)-6-({[(2,2,2-trifluoroethyl)carbamoyl]oxy}methyl)morpholin-2-yl]ethyl}pyridin-3-yl)-L-phenylalaninamide] | 16
COC(=O)N[C@@H](C(=O)Nc1ccccc1CC[C@@H]1CNC[C@@H](CSc2ccc(Cl)cc2)O1)[C@H](c1ccccc1)c1ccncc1 [Example 70, (βR)-N-(2-{2-[(2R,6S)-6-{[(4-chlorophenyl)sulfanyl]methyl}morpholin-2-yl]ethyl}phenyl)-Nα-(methoxycarbonyl)-β-pyridin-4-yl-D-phenylalaninamide] | 0.74
COC(=O)N[C@H](C(=O)Nc1cccc(F)c1CC[C@@H]1CNC[C@@H](CSc2ccc(Cl)cc2)O1)C(c1ccccc1)c1ccccc1 [Example 73, N-(2-{2-[(2R,6S)-6-{[(4-chlorophenyl)sulfanyl]methyl}morpholin-2-yl]ethyl}-3-fluorophenyl)-Nα-(methoxycarbonyl)-β-phenyl-L-phenylalaninamide] | 0.89
COC(=O)N[C@H](C(=O)Nc1ccccc1CC[C@@H]1CNC[C@@H](COc2ccc(C#N)cc2C)O1)C(c1ccccc1)c1ccccc1 [Example 29, methyl N-[(1S)-1-benzhydryl-2-[[2-[2-[(2R,6S)-6-[(4-cyano-2-methyl-phenoxy)methyl]morpholin-2-yl]ethyl]phenyl]amino]-2-oxo-ethyl]carbamate] | 17
COC(=O)N[C@H](C(=O)Nc1ccccc1CC[C@@H]1CNC[C@@H](CSc2ncnc3c2cnn3C)O1)C(c1ccccc1)c1ccccc1 [Example 36, methyl N-[(1S)-1-benzhydryl-2-[[2-[2-[(2R,6S)-6-[(1-methylpyrazolo[3,4-d]pyrimidin-4-yl)sulfanylmethyl]morpholin-2-yl]ethyl]phenyl]amino]-2-oxo-ethyl]carbamate] | 0.93
COC(=O)N[C@H](C(=O)Nc1ccccc1CC[C@@H]1CNC[C@@H](COc2ccccc2F)O1)C(c1ccccc1)c1ccccc1 [Example 49, N-[2-(2-{(2R,6S)-6-[(2-fluorophenoxy)methyl]morpholin-2-yl}ethyl)phenyl]-Nα-(methoxycarbonyl)-β-phenyl-L-phenylalaninamide] | 14
COC(=O)N[C@H](C(=O)Nc1ccccc1CC[C@@H]1CNC[C@@H](COc2ccc3ncsc3c2)O1)C(c1ccccc1)c1ccccc1 [Example 48, N-[2-(2-{(2R,6S)-6-[(1,3-benzothiazol-6-yloxy)methyl]morpholin-2-yl}ethyl)phenyl]-Nα-(methoxycarbonyl)-β-phenyl-L-phenylalaninamide] | 5.5
COC(=O)N[C@H](C(=O)Nc1ccccc1CC[C@@H]1CNC[C@@H](CSc2ncnc3[nH]ncc23)O1)C(c1ccccc1)c1ccccc1 [Example 35, methyl N-[(1S)-1-benzhydryl-2-oxo-2-[[2-[2-[(2R,6S)-6-(1H-pyrazolo[3,4-d]pyrimidin-4-ylsulfanylmethyl)morpholin-2-yl]ethyl]phenyl]amino]ethyl] carbamate] | 2.1
COC(=O)N[C@H](C(=O)Nc1ccccc1CC[C@@H]1CNC[C@@H](COc2ccc(S(N)(=O)=O)cc2)O1)C(c1ccccc1)c1ccccc1 [Example 55, N-α-(methoxycarbonyl)-β-phenyl-N-[2-(2-{(2R,6S)-6-[(4-sulfamoylphenoxy)methyl]morpholin-2-yl}ethyl)phenyl]-L-phenylalaninamide] | 12
COC(=O)N[C@H](C(=O)Nc1ccccc1CC[C@@H]1CNC[C@@H](C[S+]([O-])c2ccc(Cl)cc2)O1)C(c1ccccc1)c1ccccc1 (stereo partly drawn) [Example 57, methyl N-[(1S)-1-benzhydryl-2-[[2-[2-[(2R,6S)-6-[(4-chlorophenyl)sulfinylmethyl]morpholin-2-yl]ethyl]phenyl]amino]-2-oxo-ethyl]carbamate] | 280
COC(=O)N[C@H](C(=O)Nc1ccccc1CC[C@@H]1CNC[C@@H](CSc2cccc(Br)c2)O1)C(c1ccccc1)c1ccccc1 [Example 20, methyl N-[(1S)-1-benzhydryl-2-[[2-[2-[(2R,6S)-6-[(3-bromophenyl)sulfanylmethyl]morpholin-2-yl]ethyl]phenyl]amino]-2-oxo-ethyl]carbamate] | 2.9
N[C@H](C(=O)Nc1cncc(F)c1CC[C@@H]1CNC[C@@H](CSc2ccc(Cl)cc2)O1)C(c1ccc(F)cc1)c1ccc(F)cc1 [Example 104, (S)-2-amino-N-(4-(2-((2R,6S)-6-(((4-chlorophenyl)thio)methyl)morpholin-2-yl)ethyl)-5-fluoropyridin-3-yl)-3,3-bis(4-fluorophenyl)propanamide] | 0.28
COC(=O)N[C@H](C(=O)Nc1n[nH]cc1CC[C@@H]1CNC[C@@H](COc2ccc(S(C)(=O)=O)cc2)O1)C(c1ccccc1)c1ccccc1 [Example 115, Nα-(methoxycarbonyl)-N-(4-{2-[(2R,6S)-6-{[4-(methylsulfonyl)phenoxy]methyl}morpholin-2-yl]ethyl}-1H-pyrazol-3-yl)-β-phenyl-L-phenylalaninamide] | 370
COC(=O)N[C@H](C(=O)Nc1ccccc1CC[C@@H]1CNC[C@@H](COc2cccc3cn[nH]c23)O1)C(c1ccccc1)c1ccccc1 [Example 41, N-[2-(2-{(2R,6S)-6-[(1H-indazol-7-yloxy)methyl]morpholin-2-yl}ethyl)phenyl]-Na-(methoxycarbonyl)-b-phenyl-L-phenylalaninamide] | 26
N[C@H](C(=O)Nc1cncc(F)c1CC[C@@H]1CNCC2(CCCC2)O1)C(c1ccccc1)c1ccccc1 [Example 131, N-(5-fluoro-4-{2-[(7R)-6-oxa-9-azaspiro[4.5]dec-7-yl]ethyl}pyridin-3-yl)-β-phenyl-L-phenylalaninamide] | 300
COC(=O)N[C@H](C(=O)Nc1ccccc1CC[C@@H]1CNC[C@@H](COc2ccc(C(F)(F)F)cc2)O1)C(c1ccccc1)c1ccccc1 [Example 44, N-α-(methoxycarbonyl)-β-phenyl-N-(2-{2-[(2R,6S)-6-{[4-(trifluoromethyl)phenoxy]methyl}morpholin-2-yl]ethyl}phenyl)-L-phenylalaninamide] | 14
COC(=O)N[C@H](C(=O)Nc1c(F)cccc1CC[C@@H]1CNC[C@@H](CSc2nc3cc(F)c(Cl)cc3[nH]2)O1)C(c1ccccc1)c1ccccc1 [Example 77, N-(2-{2-[(2R,6S)-6-{[(6-chloro-5-fluoro-1H-benzimidazol-2-yl)sulfanyl]methyl}morpholin-2-yl]ethyl}-6-fluorophenyl)-Nα-(methoxycarbonyl)-β-phenyl-L-phenylalaninamide] | 11
N[C@H](C(=O)Nc1cncc(F)c1CC[C@@H]1CNCC2(CCCCC2)O1)C(c1ccccc1)c1ccccc1 [Example 133, N-(5-fluoro-4-{2-[(2R)-1-oxa-4-azaspiro[5.5]undec-2-yl]ethyl}pyridin-3-yl)-β-phenyl-L-phenylalaninamide] | 290
COC(=O)N[C@H](C(=O)Nc1cccnc1CC[C@@H]1CNC[C@@H](CSc2ncccc2Cl)O1)C(c1ccccc1)c1ccccc1 [Example 80, N-(2-{2-[(2R,6S)-6-{[(3-chloropyridin-2-yl)sulfanyl]methyl}morpholin-2-yl]ethyl}pyridin-3-yl)-Nα-(methoxycarbonyl)-β-phenyl-L-phenylalaninamide] | 58
